Reference: patent EP3807270B1, “NOVEL HETEROARYL HETEROCYCLYL COMPOUNDS FOR THE TREATMENT OF AUTOIMMUNE DISEASE” (F. Hoffmann-La Roche AG, priority 2018, dated 2019)

Columns and labels:
hERG channel = target: T1, hERG channel (Homo sapiens, UniProt Q12809); assay: hERG channel inhibition assay (patch-clamp, CHO hERG cells); type: cell-based; details: for IC50 / IC20: CHO hERG cells, whole-cell patch-clamp; for IC20: human, CHO cells stably expressing hERG; for hERG IC20 / TLR7 IC50 / hERG IC20 / TLR9 IC50: safety ratio; for hERG IC20 / TLR7 IC50: TLR7 IC50 of ER compounds from Table 1; for hERG IC20 / TLR9 IC50: TLR9 IC50 of ER compounds from Table 1
T1 construct: expressed in transfected cells; host or cells: CHO (Chinese hamster ovary)
T1 sequence (Q12809 whole entry): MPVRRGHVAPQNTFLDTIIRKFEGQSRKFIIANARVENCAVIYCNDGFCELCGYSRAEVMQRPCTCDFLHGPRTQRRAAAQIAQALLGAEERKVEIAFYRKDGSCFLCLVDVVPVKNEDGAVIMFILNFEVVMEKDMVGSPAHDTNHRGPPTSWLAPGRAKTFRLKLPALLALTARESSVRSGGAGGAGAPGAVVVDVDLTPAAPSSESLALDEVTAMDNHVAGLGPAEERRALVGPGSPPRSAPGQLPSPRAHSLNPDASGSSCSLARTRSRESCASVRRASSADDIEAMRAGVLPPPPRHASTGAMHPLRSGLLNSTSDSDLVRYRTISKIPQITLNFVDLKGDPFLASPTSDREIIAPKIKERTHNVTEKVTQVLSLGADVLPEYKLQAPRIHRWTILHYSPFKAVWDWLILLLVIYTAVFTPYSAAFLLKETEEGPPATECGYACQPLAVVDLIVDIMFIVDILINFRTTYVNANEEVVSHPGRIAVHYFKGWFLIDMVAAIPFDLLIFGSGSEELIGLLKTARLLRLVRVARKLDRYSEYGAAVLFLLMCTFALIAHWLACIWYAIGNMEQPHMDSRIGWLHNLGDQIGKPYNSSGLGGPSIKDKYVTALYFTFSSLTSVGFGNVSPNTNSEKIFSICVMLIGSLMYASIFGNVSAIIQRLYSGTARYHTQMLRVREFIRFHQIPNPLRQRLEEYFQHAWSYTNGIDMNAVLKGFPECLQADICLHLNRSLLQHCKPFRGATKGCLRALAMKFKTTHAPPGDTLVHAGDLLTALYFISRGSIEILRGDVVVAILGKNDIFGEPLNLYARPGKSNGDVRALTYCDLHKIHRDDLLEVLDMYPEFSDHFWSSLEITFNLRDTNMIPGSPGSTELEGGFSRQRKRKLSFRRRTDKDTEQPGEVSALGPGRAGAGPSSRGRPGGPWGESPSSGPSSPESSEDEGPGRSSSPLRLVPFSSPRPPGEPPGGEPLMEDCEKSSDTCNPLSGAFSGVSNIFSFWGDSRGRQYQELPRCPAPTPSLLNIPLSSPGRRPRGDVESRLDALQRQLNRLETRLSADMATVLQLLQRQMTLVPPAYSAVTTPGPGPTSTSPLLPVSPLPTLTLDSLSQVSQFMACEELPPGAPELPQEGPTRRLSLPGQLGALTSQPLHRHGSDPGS
Protocol: The hERG K^+ channels were cloned in humans and stably expressed in a CHO (Chinese hamster ovary) cell line. CHOhERG cells were used for patch-clamp (voltage-clamp, whole-cell) experiments. Cells were stimulated by a voltage pattern to activate hERG channels and conduct IKhERG currents (rapid delayed outward rectifier potassium current of the hERG channel). After the cells were stabilized for a few minutes, the amplitude and kinetics of IKhERG were recorded at a stimulation frequency of 0.1 Hz (6 bpm). Thereafter, the test compound was added to the preparation at increasing concentrations. For each concentration, an attempt was made to reach a steady-state effect, usually, this was achieved within 3-10 min at which time the next highest concentration was applied. The amplitude and kinetics of IKhERG are recorded in each concentration of the drug which were compared to the control values (taken as 100%). (references: Redfern WS, Carlsson L, Davis AS, Lynch WG, MacKenzie I, Palethorpe S, Siegl PK, Strang I, Sullivan AT, Wallis R, Camm AJ, Hammond TG. 2003; Relationships between preclinical cardiac electrophysiology, clinical QT interval prolongation and torsade de pointes for a broad range of drugs: evidence for a provisional safety margin in drug development. Cardiovasc. Res. 58:32-45, Sanguinetti MC, Tristani-Firouzi M. 2006; hERG potassium channels and cardiac arrhythmia. Nature 440:463-469, Webster R, Leishman D, Walker D. 2002; Towards a drug concentration effect relationship for QT prolongation and torsades de pointes. Curr. Opin. Drug Discov. Devel. 5:116-26).
Table 3. hERG and safety ratio results

[1] = Human microsome stability assay; type: in vitro ADME; details: 1 µM test compound, 0.5 mg/mL liver microsomal protein, 37 °C
Protocol: The human microsomal stability assay is used for early assessment of metabolic stability of a test compound in human liver microsomes.
Human liver microsomes (Cat.NO.: 452117, Corning, USA;Cat.NO.:H2610, Xenotech, USA) were preincubated with test compound for 10 minutes at 37 °C in 100 mM potassium phosphate buffer, pH 7.4. The reactions were initiated by adding NADPH regenerating system. The final incubation mixtures contained 1 µM test compound, 0.5 mg/mL liver microsomal protein, 1 mM MgClz, 1 mM NADP, 1 unit/mL isocitric dehydrogenase and 6 mM isocitric acid in 100 mM potassium phosphate buffer, pH 7.4. After incubation times of 0, 3, 6, 9, 15 and 30 minutes at 37 °C, 300 µL of cold acetonitrile (including internal standard) was added to 100 µL incubation mixture to terminate the reaction. Following precipitation and centrifugation, the amount of compound remaining in the samples were determined by LC-MS/MS. Controls of no NADPH regenerating system at zero and 30 minutes were also prepared and analyzed. […] Table 6. Human liver microsome stability of the compounds of present invention

hTLR7 = target: T2, hTLR7 (Homo sapiens, UniProt Q9NYK1); design: host or cells: HEK; details: data disclosed in US20150105370; read-out: HEK/hTLR7 IC50; cited from earlier work
T2 sequence (Q9NYK1 27-1049): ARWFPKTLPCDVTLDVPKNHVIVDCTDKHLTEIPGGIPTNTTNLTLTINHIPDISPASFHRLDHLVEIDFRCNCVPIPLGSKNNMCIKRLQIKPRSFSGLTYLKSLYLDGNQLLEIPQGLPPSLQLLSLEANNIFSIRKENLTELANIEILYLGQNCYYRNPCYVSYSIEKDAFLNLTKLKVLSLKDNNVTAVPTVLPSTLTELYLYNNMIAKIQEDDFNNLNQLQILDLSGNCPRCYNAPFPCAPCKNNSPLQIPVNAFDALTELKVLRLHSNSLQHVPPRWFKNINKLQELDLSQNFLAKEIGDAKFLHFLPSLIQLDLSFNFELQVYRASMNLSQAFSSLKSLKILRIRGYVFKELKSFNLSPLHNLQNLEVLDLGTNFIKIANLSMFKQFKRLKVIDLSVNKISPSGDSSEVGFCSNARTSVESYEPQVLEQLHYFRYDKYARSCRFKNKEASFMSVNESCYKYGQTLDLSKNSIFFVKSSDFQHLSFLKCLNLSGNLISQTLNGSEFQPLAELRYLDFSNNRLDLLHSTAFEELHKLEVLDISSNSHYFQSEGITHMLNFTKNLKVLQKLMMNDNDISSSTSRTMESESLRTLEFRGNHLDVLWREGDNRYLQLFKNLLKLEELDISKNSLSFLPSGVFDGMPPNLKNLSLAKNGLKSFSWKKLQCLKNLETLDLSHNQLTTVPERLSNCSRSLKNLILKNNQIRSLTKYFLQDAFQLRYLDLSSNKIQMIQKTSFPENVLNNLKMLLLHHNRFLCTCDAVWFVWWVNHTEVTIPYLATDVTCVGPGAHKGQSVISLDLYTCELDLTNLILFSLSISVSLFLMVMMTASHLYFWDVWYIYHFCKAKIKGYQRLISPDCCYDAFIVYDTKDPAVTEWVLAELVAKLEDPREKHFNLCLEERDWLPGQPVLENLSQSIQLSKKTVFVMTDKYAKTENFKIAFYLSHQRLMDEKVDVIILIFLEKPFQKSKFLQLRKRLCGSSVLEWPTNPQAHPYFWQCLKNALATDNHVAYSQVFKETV

hTLR9 = target: T3, hTLR9 (Homo sapiens, UniProt Q9NR96); design: host or cells: HEK; details: data disclosed in US20150105370; read-out: HEK/hTLR9 IC50; cited from earlier work
T3 sequence (Q9NR96 26-1032): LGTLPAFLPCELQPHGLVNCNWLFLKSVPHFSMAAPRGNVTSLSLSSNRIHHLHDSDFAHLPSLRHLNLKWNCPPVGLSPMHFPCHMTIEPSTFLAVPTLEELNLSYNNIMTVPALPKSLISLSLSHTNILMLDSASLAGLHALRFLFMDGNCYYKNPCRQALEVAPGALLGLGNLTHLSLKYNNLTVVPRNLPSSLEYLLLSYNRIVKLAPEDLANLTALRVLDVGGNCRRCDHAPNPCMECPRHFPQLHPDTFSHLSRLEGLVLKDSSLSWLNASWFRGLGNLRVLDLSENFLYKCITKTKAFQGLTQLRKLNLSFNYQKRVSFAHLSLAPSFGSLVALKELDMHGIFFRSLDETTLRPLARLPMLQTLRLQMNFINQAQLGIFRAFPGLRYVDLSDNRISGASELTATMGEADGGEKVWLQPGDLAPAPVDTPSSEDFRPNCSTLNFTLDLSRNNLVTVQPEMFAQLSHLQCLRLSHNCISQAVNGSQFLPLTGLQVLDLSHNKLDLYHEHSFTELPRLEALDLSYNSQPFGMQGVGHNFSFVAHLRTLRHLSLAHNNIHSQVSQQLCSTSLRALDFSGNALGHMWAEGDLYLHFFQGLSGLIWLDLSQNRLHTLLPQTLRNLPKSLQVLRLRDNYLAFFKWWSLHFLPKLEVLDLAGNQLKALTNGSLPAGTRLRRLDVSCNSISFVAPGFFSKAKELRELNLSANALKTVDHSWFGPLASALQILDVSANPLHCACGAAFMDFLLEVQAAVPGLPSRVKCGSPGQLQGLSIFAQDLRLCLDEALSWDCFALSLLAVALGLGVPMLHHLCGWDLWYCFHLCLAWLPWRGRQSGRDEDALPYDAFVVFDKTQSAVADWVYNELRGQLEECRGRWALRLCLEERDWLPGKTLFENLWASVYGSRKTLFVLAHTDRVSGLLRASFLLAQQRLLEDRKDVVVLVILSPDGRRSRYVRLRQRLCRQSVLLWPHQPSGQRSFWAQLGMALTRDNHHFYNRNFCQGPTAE

C[C@@H]1CN(c2ccc(C#N)c3ncccc23)C[C@H](CN2CCN(c3ccccc3)CC2)O1 [ER-887258, reference compound]
IC50 (hERG channel): 2.78 µM
IC20 (hERG channel): 0.687 µM
hERG IC20 / TLR7 IC50 (hERG channel): 8.1
hERG IC20 / TLR9 IC50 (hERG channel): 0.3
Clearance of Human microsome [1]: 17.86 mL/min/kg
IC50 (hTLR7): 0.0852 µM
IC50 (hTLR9): > 2 µM

C[C@@H]1CN(c2ccc(C#N)c3ncccc23)C[C@H](CN2CCN(c3ccccn3)CC2)O1 [ER-888285, reference compound]
IC50 (hERG channel): 3.11 µM
IC20 (hERG channel): 1.01 µM
hERG IC20 / TLR7 IC50 (hERG channel): 8.4
hERG IC20 / TLR9 IC50 (hERG channel): 0.5
Clearance of Human microsome [1]: 17.15 mL/min/kg
IC50 (hTLR7): 0.12 µM
IC50 (hTLR9): > 2 µM
